The source of these data is patent US8463552B1, “Methods for medicinal dosage determination and diagnosis” (priority 2005, dated 2013).

The test system of data set [1] is brain volumes of interest (BOLD signal). The experiment in a line: BOLD-sensitive fMRI of anesthetized monkey during i.v. infusion of SKF82958. It counts as in vivo, M. fascicularis. To be noted: 0.1 mg/kg total i.v. infusion from 10 to 15 min; one VOI in one subject; 1.5% isoflurane; FIG. 12. From the text:
To determine how the noise levels in the simulation data just described correspond to realistic biological data, we acquired data using BOLD-sensitive fMRI imaging of an anesthetized monkey with administration of the dopamine agonist SKF82958. Experiments were approved in advance by the Washington University Animal Studies Committee and due care was exercised to prevent discomfort to the animal. During imaging sessions the animal's health was monitored by veterinary staff from the Washington University Division of Comparative Medicine. Two male M. fascicularis monkeys were studied. Imaging was done while the animals were ventilated with 1.5% isoflurane in oxygen. We obtained repeated whole-brain BOLD-sensitive fMRI images at a repetition interval of one every 3 seconds over a 40-minute period. At 10 minutes into the imaging session a steady-rate, slow intravenous infusion of the dopamine D1 agonist. SKF82958 was commenced finishing at 15 minutes, with a total administered dose of 0.1 mg/kg. […] Volumes of interest (VOIs) were traced on structural brain images acquired at the same session. These included left and right caudate, left and right putamen, striatum collectively, whole brain, and a midbrain region. Time-activity curves from each VOI were extracted and submitted to the computer method described above. […]

The test system of data set [2] is whole-brain and regional blood flow. To be noted: total administered dose 0.1 mg/kg; cited from earlier work.

With `C=CCN1CCc2c(cc(O)c(O)c2Cl)C(c2ccccc2)C1` (stereo not shown) [SKF82958], the “Emax (magnitude of BOLD response in VOI time-activity curve)” value in data set [1] was “at least 20”. In addition, in data set [2], the “effect on whole-brain mean quantitative blood flow” value is given as “does not affect”, the “effects on regional blood flow consistent with local neuronal activation” value is “produces reliable effects” and the safety of dose entry is “safe”.
